In patent US11091749B2, “Deimmunized lysostaphin and methods of use” (TRUSTEES OF DARTMOUTH COLLEGE, priority 2014, dated 2021):

What was measured:
[1] = system: MRSA strain 3425-3; experiment: MIC assay; type: cell-based, Staphylococcus aureus; conditions: biological duplicates
Method: (§1) The MICs of wild-type lysostaphin and its variants were determined by adding 2-fold serial dilutions of enzymes into wells of a polypropylene 96-well plate (Costar 3879) containing ˜40,000 S. aureus SA113 (or S. aureus 6445, 3425-1, 3425-3) cells in Muller Hinton broth (BD) supplemented with 2% NaCl and 0.1% bovine serum albumin, yielding a total volume of 100 μl. Plates were grown overnight at 37° C. with shaking at 900 rpm on an Orbit P4 orbital shaker (Labnet; Edison, N.J.). […] The assay was performed in triplicate for each enzyme.

[2] = system: S. aureus 3425-1; experiment: MIC assay; type: cell-based, Staphylococcus aureus; conditions: biological duplicates
Method: as §1

[3] = system: S. aureus SA113; experiment: MIC assay; type: cell-based, Staphylococcus aureus
Method: as §1

[4] = system: S. aureus strain SA113; experiment: MIC activity relative to LST^WT; type: cell-based, Staphylococcus aureus; conditions: % fold dilution relative to wild type
Method: LST and its derivatives were secreted from P. pastoris. Briefly, recombinant Pichia strains were cultured in a 2.5 L bioreactor (Applicon Biotechnology), and the proteins were captured from the supernatant by polyethylene glycol-6000 (PEG-6000) precipitation and purified to homogeneity by SP SEPHAROSE F.F. cation exchange chromatography. Endotoxin was removed from the protein preparation by TRITON-X114 extraction (Liu, et al. (1997) Clin. Biochem. 30:455-63). Protein expression levels were estimated by densitometry analysis of SDS-PAGE gels.

[5] = system: MRSA strain USA400; experiment: S. aureus recurrent bacteremia model, in vivo efficacy; design: species or system DR4 mice; conditions: 500 μg i.v.
Method: Prior to bacterial challenge, the immune systems of DR4 mice (N=3 per group) were primed 3-times with weekly subcutaneous injections of 100 μg LST^WT or Lib5 variant in sterile phosphate buffered saline (PBS: 2.7 mM KCl, 1.5 mM KH2PO4, 8.9 mM Na2HPO4, 136.9 mM NaCl, pH 7.4). These immunizations and boosts contained no adjuvant. Anti-LST antibody titers were determined as described above. For the first cycle of infection and treatment, mice were challenged with intraperitoneal administration of 2×10^8 CFU Staphylococcus aureus strain USA400 in a 3% suspension of porcine mucin, and one hour later were treated by intravenous tail vein administration of 500 μg of LST^WT or Lib5 variant in sterile PBS. Mice that were rescued by the enzyme treatment underwent subsequent infection and treatment cycles at weekly intervals. To compensate for development of innate murine antibacterial immunity following the first bacterial exposure, mice were challenged with 1×10^9 CFU USA400 in the second and third cycles, but the treatments remained at 500 μg of the appropriate protein. As a control to verify the lethal bacterial dose in each cycle, one mouse was given a sham treatment of PBS.
Using an S. aureus recurrent bacteremia model, the extent to which LST immunogenicity impacted in vivo efficacy was subsequently evaluated. […]

[6] = system: MRSA strain USA400; experiment: In vitro inhibitory activity (MIC); type: cell-based, Staphylococcus aureus; conditions: 50° C. for 1 hour prior to assay
From the text: F11, P12 and F13 were screened for in vitro inhibitory activity against MRSA strain USA400 (FIG. 7).

[7] = system: MRSA strain USA400; experiment: Efficacy of F12 in recurrent systemic MRSA infections; type: in vivo, DR4 HLA transgenic mice; conditions: for # Treated Mice Surviving: 500 μg enzyme 1 hour later
Method: In a similar set of experiments, the immunogenicity and efficacy of variant F12 was compared to wild-type LST in the absence of adjuvant using DR4 HLA transgenic mice. At week 0, mice were challenged with an intraperitoneal injection of 2×10^8 MRSA strain USA400, and 1 hour later the mice were treated with 500 μg wild-type LST or 500 μg variant F12, given as a single bolus subcutaneous injection. Subsequently, mice were challenged weekly with an intraperitoneal injection of 1×10^9 MRSA strain USA400, and treated as above. Antibody titers were measured weekly beginning at week 2. […] Variant F12 rescued all mice from four recurrent, systemic, MRSA infections (Table 24). The substantially lower antibody titers elicited by variant F12 indicate that this variant is […] than wild-type LST.

Substance: Wild-Type: wild-type lysostaphin (SEQ ID NO:49) produced in P. pastoris; aglycosylated Ser126Pro backbone in the design studies [reference compound]
- MIC Strain 3425-3 [1]: 0.03 µg/mL
- MIC Strain 3425-1 [2]: 0.04 µg/mL
- MIC ([3]; S. aureus SA113, purified enzyme): 0.0351 µg/mL
- MIC Strain SA113 ([3]; biological duplicates): 0.02 µg/mL
- Activity (% WT) [4]: 100 % WT
- rescue from infection ([5]; first cycle, 2×10^8 CFU i.p.): rescued
- rescue from infection ([5]; second cycle, 10^9 CFU): failed to rescue any of the three treated mice
- retained original MIC activity after heating [6]: full
- recurrent systemic MRSA infections from which mice were rescued ([7]; 500 μg s.c., weekly challenges, no adjuvant): four
- # Treated Mice Surviving ([7]; Week 0, 2×10^8 MRSA USA400 i.p., no adjuvant): 7
- # Treated Mice Surviving ([7]; Week 1, 1×10^9 MRSA USA400 i.p.): 6
- # Treated Mice Surviving ([7]; Week 2, 1×10^9 MRSA USA400 i.p.): 5
- # Treated Mice Surviving ([7]; Week 3, 1×10^9 MRSA USA400 i.p.): 4
- # Treated Mice Surviving ([7]; Week 4, 1×10^9 MRSA USA400 i.p.): 0
